From ChEMBL document CHEMBL1201862, “PubChem BioAssay data set” (2004)
The source made the active and inactive calls.

Assays:
[1] = target: T1, Orexin receptor type 2 (Homo sapiens, UniProt O43614); test: Counterscreen assay for antagonists of the orexin 1 receptor (OX1R; HCRTR1): Fluorescence-based cell-based dose response assay for antagonists of the orexin 2 receptor (OX2R; HCRTR2), run by assay provider.; format: functional
T1 sequence (O43614 whole entry): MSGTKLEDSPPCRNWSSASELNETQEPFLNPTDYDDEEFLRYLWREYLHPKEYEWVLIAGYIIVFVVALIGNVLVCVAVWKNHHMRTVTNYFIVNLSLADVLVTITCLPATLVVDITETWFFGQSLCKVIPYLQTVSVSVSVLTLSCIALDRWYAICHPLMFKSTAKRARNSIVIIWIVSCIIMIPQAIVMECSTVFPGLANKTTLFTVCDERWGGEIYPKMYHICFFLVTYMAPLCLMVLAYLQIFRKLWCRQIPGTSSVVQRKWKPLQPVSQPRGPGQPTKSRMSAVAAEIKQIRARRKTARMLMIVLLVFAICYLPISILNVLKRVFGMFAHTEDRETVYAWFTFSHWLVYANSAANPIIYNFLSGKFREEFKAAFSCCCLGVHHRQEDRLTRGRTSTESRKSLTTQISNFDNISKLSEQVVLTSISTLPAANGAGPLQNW

[2] = target: T1, Orexin receptor type 2; test: Counterscreen assay for antagonists of the orexin 1 receptor (OX1R; HCRTR1): Homogeneous Time Resolved Fluorescence (HTRF)-based cell-based dose response assay for antagonists of the orexin 2 receptor (OX2R; HCRTR2), run by assay provider.; format: functional
[3] = system: CHO-K1; test: (§1) Counterscreen for antagonists of the orexin 1 receptor (OX1R; HCRTR1): Homogeneous time resolved fluorescence (HTRF)-based cell-based dose response assay to identify antagonists of the parental CHO-K1 cell line. [Related pubchem assays (depositor defined):AID434989, AID435008, AID463079, AID485270, AID492963, AID492964, AID492965, AID493232, AID504699, AID504701]; format: functional; settings: Cricetulus griseus
[4] = target: T2, Orexin/Hypocretin receptor type 1 (Homo sapiens, UniProt O43613); test: Homogeneous Time Resolved Fluorescence (HTRF)-based cell-based high throughput dose response assay for antagonists of the orexin 1 receptor (OX1R; HCRTR1). [Related pubchem assays (depositor defined):AID434989, AID435008, AID463079, AID485270, AID492963, AID492964, AID492965, AID493232, AID504717, AID504718]; format: functional
T2 sequence (O43613 whole entry): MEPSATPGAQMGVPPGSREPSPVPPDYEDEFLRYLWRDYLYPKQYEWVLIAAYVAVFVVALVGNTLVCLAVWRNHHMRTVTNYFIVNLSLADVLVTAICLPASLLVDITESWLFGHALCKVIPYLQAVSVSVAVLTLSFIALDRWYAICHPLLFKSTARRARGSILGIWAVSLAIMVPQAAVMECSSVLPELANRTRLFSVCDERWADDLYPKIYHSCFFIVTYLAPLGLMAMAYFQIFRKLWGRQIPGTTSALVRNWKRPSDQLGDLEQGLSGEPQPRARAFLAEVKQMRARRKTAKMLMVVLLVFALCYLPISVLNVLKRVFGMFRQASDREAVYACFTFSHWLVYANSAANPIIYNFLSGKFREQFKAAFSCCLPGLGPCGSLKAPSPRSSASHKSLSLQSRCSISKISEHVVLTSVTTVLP

[5] = as §1, with “Fluorescence-based” for “Homogeneous time resolved fluorescence (HTRF)-based”, “cell-based high throughput” for “cell-based”, “CHO” for “CHO-K1”; format: functional
[6] = target: T2, Orexin/Hypocretin receptor type 1; test: Fluorescence-based cell-based high throughput dose response assay for antagonists of the orexin 1 receptor (OX1R; HCRTR1). [Related pubchem assays (depositor defined):AID434989, AID435008, AID463079, AID485270, AID492963, AID492964, AID492965, AID493232, AID504717, AID504718]; format: functional
[7] = NIH-3T3 fibroblast cytotoxicity, dose response, cytotoxicity control, cell-based, fluorescence, Alamar Blue, secondary assay (AID 2327); format: functional;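 note: NIH-3T3 mouse fibroblasts cultured with fluconazole at 8 µg/mL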
[8] = system: HEK293; test: optical interference in Abeta FP readout, dose response, artefact control for IDE activator project, biochemical, fluorescence polarization (AID 588442); format: functional, cell-based; settings: Homo sapiens
[9] = A549 cell cytotoxicity, dose response, cytotoxicity control, plate reader, cherry-pick, antagonist series (AID 743412); format: functional, cell-based
[10] = system: INS1; test: beta cell apoptosis inhibitors, cytokine rescue, dose response, luminescence, retest (AID 449756); format: functional, cell-based; settings: Rattus norvegicus;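 note: cell death triggered by IL-1 beta plus TNF-alpha plus IFN-gamma mixture; protective hits raise ATP signal compared with cytokine alone wells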
[11] = LGR2 antagonists, dose response, cell-based, HEK293, CRE-luciferase reporter, cherry pick, set 2 (AID 743343); format: functional;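 note: transfected cells were stimulated with diluted bursicon conditioned medium after compound addition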
[12] = inhibitors of firefly luciferase expression or activity, dose response, H4 neuroglioma cells, luminescence (AID 1990); format: functional, cell-based
[13] = target: T3, Ubiquitin-conjugating enzyme E2 N (Homo sapiens, UniProt P61088); format: functional;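 note: Dose-response confirmation in a TR-FRET assay detecting UBC13-driven polyubiquitin chain formation, inhibition measured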
T3 sequence (P61088 whole entry): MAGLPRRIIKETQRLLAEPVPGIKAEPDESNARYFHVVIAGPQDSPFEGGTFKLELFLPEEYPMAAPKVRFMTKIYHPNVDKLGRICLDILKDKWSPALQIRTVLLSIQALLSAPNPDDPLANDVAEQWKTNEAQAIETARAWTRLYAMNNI

[14] = target: Paired box protein Pax-8 (Homo sapiens, UniProt Q06710); test: inhibitors of PAX8-driven TPO luciferase reporter, dose response, RMG-I cells, cherry-pick (AID 687027); format: functional, cell-based;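 note: luciferase reporter driven by Pax8 target thyroperoxidase promoter measured by SteadyGlo luminescence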
[15] = target: T4, Insulin-degrading enzyme (Homo sapiens, UniProt P14735); test: activators of recombinant IDE enzyme, dose response, counter-screen for IDE activator project, biochemical, fluorescence polarization (AID 588681)
T4 sequence (P14735 whole entry): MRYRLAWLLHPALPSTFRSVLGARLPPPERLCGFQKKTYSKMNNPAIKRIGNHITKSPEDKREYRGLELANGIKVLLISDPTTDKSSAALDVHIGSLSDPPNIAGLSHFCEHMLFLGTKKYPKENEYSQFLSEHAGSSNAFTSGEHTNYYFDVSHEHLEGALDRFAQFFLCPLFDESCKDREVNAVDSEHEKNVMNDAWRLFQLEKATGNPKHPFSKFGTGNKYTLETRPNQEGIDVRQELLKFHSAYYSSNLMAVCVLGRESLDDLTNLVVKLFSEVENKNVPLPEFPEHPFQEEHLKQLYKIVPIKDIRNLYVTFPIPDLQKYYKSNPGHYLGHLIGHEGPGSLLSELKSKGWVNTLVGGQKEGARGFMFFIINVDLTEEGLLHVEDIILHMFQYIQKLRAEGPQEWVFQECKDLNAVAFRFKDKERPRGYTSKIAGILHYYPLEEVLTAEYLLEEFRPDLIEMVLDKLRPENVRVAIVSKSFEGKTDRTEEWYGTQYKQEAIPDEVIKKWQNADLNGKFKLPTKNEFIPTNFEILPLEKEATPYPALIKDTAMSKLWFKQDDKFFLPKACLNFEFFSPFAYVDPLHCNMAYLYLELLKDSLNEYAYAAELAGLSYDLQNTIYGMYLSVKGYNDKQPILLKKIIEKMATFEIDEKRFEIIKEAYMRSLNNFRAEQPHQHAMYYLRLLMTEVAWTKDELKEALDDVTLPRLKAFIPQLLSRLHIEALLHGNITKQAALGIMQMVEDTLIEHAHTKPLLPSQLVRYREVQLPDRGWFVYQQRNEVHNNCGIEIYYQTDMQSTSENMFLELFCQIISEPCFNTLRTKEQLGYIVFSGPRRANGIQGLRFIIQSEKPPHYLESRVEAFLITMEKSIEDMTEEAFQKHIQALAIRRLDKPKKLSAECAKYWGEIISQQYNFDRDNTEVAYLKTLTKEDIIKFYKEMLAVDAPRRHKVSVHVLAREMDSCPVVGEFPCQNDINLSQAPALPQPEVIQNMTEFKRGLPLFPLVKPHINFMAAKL

[16] = Luminescence Cell-Based Dose Response HTS to Identify Inhibitors of 5'UTR Stem-Loop Driven Prion Protein mRNA Translation in H4 Neuroglioblastoma Cells. [Related pubchem assays: 1827 (Project Summary), 1813 (Primary HTS)]; format: functional
[17] = HepG2 cell cytotoxicity, dose response, cytotoxicity control, plate reader, cherry-pick, antagonist series (AID 743416); format: functional, cell-based
[18] = target: T4, Insulin-degrading enzyme; test: activators of endogenous IDE in HEK cells, dose response, cell-based, fluorescence polarization (AID 588439); format: functional
[19] = system: Streptococcus sp. 'group A'; test: growth inhibition of control SK(-) GAS strain, dose response, counter-screen for streptokinase expression inhibitor project, luminescence, kanamycin, BacTiterGlo, confirmation (AID 1900); format: functional, organism-based
[20] = system: HEK293; test: HEK cell cytotoxicity by LDH release, dose response, cytotoxicity control for IDE activator project, fluorescence, HEK cells (AID 588440); format: functional, cell-based; settings: Homo sapiens;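 note: cytotoxicity by LDH release measuring loss of membrane integrity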
[21] = cytotoxicity toward DRD oncogenic fibroblasts, dose response, cell-based, non-viral oncogenic, luminescence (AID 1934); format: functional; settings: Homo sapiens
[22] = C. albicans growth with fluconazole, confirmation, fluorescence, retest (AID 2467); format: functional, cell-based
[23] = inhibitors of SNCA 5'UTR-driven reporter translation, confirmation, H4 neuroglioma cells, luminescence (AID 1988); format: functional, cell-based
[24] = inhibitors of PGC1a acetylation in cells, dose response, cell-based, cherry-picked samples (AID 720514); format: functional;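 note: potency may reflect raised or lowered acetylation signal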
[25] = system: BJ; test: cells; format: functional, cell-based; settings: Homo sapiens
[26] = cytotoxicity in HEK-293T cells, dose response, cytotoxicity control for TCR NF-kB inhibitor project, luminescence, T-cell screen hits (AID 489026); format: functional, cell-based;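 note: cells exposed to compound about 14 hours before the viability readout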
[27] = MC4R antagonists, dose response, counter-screen for LGR2 antagonist project, cell-based, plate reader, cherry pick (AID 743444); format: functional;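 note: transfected HEK 293 cells stimulated with alpha-MSH peptide; potency of inhibitors of the alpha-MSH evoked signal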
[28] = system: BJ; test: cytotoxicity toward BJ-TERT-LT-ST fibroblasts, dose response, cell-based, RAS-independent, luminescence (AID 1935); format: functional; settings: Homo sapiens;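 note: BJ fibroblasts immortalized with TERT plus LT and ST oncogenes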
[29] = system: BJ; test: cytotoxicity toward BJ-TERT fibroblasts, dose response, cell-based, RAS-independent, luminescence (AID 1933); format: functional; settings: Homo sapiens
[30] = HEK293 cell cytotoxicity, dose response, cytotoxicity control, plate reader, cherry-picked samples (AID 743446); format: functional, cell-based
[31] = system: BJ; test: cytotoxicity toward Ras-transformed BJeLR fibroblasts, dose response, cell-based, alamar blue fluorescence, cherrypicked samples (AID 2631); format: functional; settings: Homo sapiens;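 note: confirmatory dose-response assay in RAS-dependent BJ fibroblasts engineered with TERT, LT and ST, with cytotoxicity read by fluorescence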
[32] = system: Streptococcus; test: Group A Streptococcus viability loss, dose response, counter-screen for streptokinase expression inhibitor project, luminescence, BacTiterGlo (AID 1915); format: functional, organism-based;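 note: potency for reduction of bacterial viability or growth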
[33] = target: T5, Calpain-2 catalytic subunit (Sus scrofa, UniProt P43367); test: pig calpain II inhibitor potency, dose response, biochemical, fluorogenic peptide substrate (AID 1420); format: functional
T5 sequence (P43367 whole entry): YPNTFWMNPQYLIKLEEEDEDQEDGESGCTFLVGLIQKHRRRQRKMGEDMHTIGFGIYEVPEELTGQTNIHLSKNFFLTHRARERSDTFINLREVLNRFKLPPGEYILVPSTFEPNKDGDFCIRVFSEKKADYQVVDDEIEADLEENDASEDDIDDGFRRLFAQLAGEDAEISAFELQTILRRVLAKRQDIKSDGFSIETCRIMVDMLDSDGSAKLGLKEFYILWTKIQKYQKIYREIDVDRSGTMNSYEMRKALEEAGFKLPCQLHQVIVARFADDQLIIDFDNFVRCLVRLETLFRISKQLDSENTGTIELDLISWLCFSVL

Sequence of Paired box protein Pax-8 (Q06710 whole entry): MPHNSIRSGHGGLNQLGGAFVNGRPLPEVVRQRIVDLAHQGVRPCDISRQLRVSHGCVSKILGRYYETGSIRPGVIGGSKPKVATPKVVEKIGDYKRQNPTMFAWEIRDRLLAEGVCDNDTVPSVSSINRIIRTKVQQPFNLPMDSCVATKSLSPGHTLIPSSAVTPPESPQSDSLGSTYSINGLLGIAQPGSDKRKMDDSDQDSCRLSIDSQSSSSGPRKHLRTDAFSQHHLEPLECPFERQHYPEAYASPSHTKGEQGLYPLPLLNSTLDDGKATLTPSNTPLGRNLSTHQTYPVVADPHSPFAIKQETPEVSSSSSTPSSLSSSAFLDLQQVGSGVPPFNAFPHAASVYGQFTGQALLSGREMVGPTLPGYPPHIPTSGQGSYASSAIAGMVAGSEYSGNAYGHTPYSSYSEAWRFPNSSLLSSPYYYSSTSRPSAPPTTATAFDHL

## N#CC(=C1CCCC1)c1nc(-c2ccccc2O)cs1
[1]
  IC50: 31.6 µM (inactive)
[2]
  IC50: 19.8 µM (inactive)
[3]
  IC50: > 66.2 µM (inactive)
[4]
  IC50: 6.33 µM (active)
[5]
  IC50: > 49.7 µM (inactive)
[6]
  IC50: 6.43 µM (active)

## CNC[C@@H](CC1CCCCC1)NC[C@H](CC(C)C)NCCc1cccc(C(F)(F)F)c1
[7]
  EC50: 7.53 µM (inconclusive)
[8]
  EC50: > 54.7 µM (inactive)
[9]
  AC50: 4.66 µM (active)
[10]
  AC50: 3.59 µM (active)
[11]
  AC50: 14.6 µM (active)
[12]
  EC50: > 120 µM (not active)
[13]
  IC50: > 20 µM (inactive)
[14]
  AC50: 9.93 µM (active)
[15]
  EC50: > 54.7 µM (inactive)
[16]
  EC50: 8.87 µM (active)
[17]
  AC50: 3.86 µM (active)
[18]
  EC50: 6.62 µM (active)
[19]
  EC50: 2.79 µM (active)
[20]
  IC50: 6.35 µM (active)
[21]
  EC50: 4.69 µM (active)
[22]
  EC50: > 38 µM (not active)
[23]
  EC50: 7.84 µM (active)
[24]
  AC50: 3.24 µM (active)
[25]
  EC50: 7.22 µM (inconclusive)
[26]
  IC50: 29 µM (inactive)
[27]
  AC50: 22.5 µM (active)
[28]
  EC50: 2.08 µM (active)
[29]
  EC50: 2.66 µM (inconclusive)
[30]
  AC50: 7.81 µM (active)
[31]
  EC50: 1.86 µM (inconclusive)
[32]
  EC50: 9.26 µM (active)

## O=C(CSc1ccc(-c2ccccc2)nn1)c1cccs1
[1]
  IC50: > 88.8 µM (inactive)
[2]
  IC50: > 50 µM (inactive)
[3]
  IC50: > 66.2 µM (inactive)
[4]
  IC50: 1.08 µM (active)
[5]
  IC50: > 49.8 µM (inactive)
[6]
  IC50: 3.37 µM (active)
[33]
  IC50: > 50 µM (not active)
